Measurements published in patent publication US6444617B1, “Fused-heterocycle dicarboxylic acid diamide derivatives or salts thereof, herbicide and usage thereof” (Nihon Nohyaku Co., Ltd., priority 1998, dated 2002).

What was measured:
Format in all cases: in vivo
[1] = tested on: barnyard grass (Echinochloa crus-galli Beauv.); assay: Test Example 1: herbicidal effect on paddy field weeds before emergence; details: Dosage 5 kg/ha
Description: (§1) Test for Herbicidal Effect on Paddy Field Weeds Before Emergence Soil was filled into 1/10000 are pots and brought into a state of paddy field, in which seeds of barnyard grass (Echinochloa crus-galli Beauv.) and bulrush (Scirpus juncoides Roxb.) were made to be before germination. The soil in the pots were treated with a solution containing a predetermined dosage of a chemical agent comprising a compound of the present invention listed in Tables 1 to 14. Twenty one days after the treatment, the herbicidal effect was investigated, the result was compared with that in untreated plot to calculate the weed-controlling rate, and the herbicidal effect was judged according to the following criterion: […]

[2] = tested on: bulrush (Scirpus juncoides Roxb.); assay: as above; details: Dosage 5 kg/ha
Description: as §1

[3] = tested on: barnyard grass (Echinochloa crus-galli Beauv.); assay: Test Example 2: herbicidal effect on paddy field weeds after emergence; details: Dosage 5 kg/ha; one-leaved stage; 21 days after treatment
Description: (§2) Test for Herbicidal Effect on Paddy Field Weeds After Emergence. Soil was filled into 1/10000 are pots and brought into a state of paddy field, in which seeds of barnyard grass (Echinochloa crus-galli Beauv.), bulrush (Scirpus juncoides Roxb.) and monochoria (Monochoria vaginalis Presl) were made to reach one-leaved stage. The soil in the pots were treated with a solution containing a predetermined dosage of a chemical agent comprising a compound of the present invention listed in Tables 1 to 14. Twenty one days after the treatment, the herbicidal effect was investigated and the result was compared with that in untreated plot to calculate the weed-controlling rate, and the herbicidal effect was judged according to the same criterion as in Test Example 1.

[4] = tested on: bulrush (Scirpus juncoides Roxb.); assay: as above; details: Dosage 5 kg/ha; one-leaved stage; 21 days after treatment
Description: as §2

[5] = tested on: monochoria (Monochoria vaginalis Presl); assay: as above; details: Dosage 5 kg/ha; one-leaved stage; 21 days after treatment
Description: as §2

[6] = tested on: barnyard grass (Echinochloa crus-galli Beauv.), Ec; assay: Test Example 3: herbicidal effect on upland weeds before emergence; details: dosage 5 kg/ha
Description: (§3) Herbicidal Effect on Upland Weeds Before Emergence […] Then, a liquid preparation of an agent comprising a prescribed concentration of a compound of the present invention (the compounds listed in Tables 1-14) as active ingredient was sprayed. Fourteen days after the treatment, the herbicidal effect was investigated, from which weed-killing rate was calculated in the same manner as in Test Example 1, and the herbicidal effect was judged.

[7] = tested on: bird's eye speedwell (Veronica persica Poir.), Vp; assay: as above; details: dosage 5 kg/ha
Description: as §3

[8] = tested on: cleavers (Galium aparine L.), Ga; assay: as above; details: dosage 5 kg/ha
Description: as §3

[9] = tested on: cocklebur (Xanthium strumarium L.), Xs; assay: as above; details: dosage 5 kg/ha
Description: as §3

[10] = tested on: forxtail grass (Alopecurus aequalis var. amurensis Ohwi), Am; assay: as above; details: foxtail grass, dosage 5 kg/ha
Description: as §3

[11] = tested on: velvetleaf (Abutilon theophtasti L.), At; assay: as above; details: dosage 5 kg/ha
Description: as §3

soybean plant (So) = assay: Test Example 3: phytotoxicity to upland crop plants, treatment before emergence; details: dosage 5 kg/ha
Description: as §3, with “judged. At the same time, phytotoxicity to soybean plant and wheat was investigated and judged according to the criterion mentioned below.” for “judged.”

wheat (Wh) = assay: as above; details: dosage 5 kg/ha
Description: as §3, with “judged. At the same time, phytotoxicity to soybean plant and wheat was investigated and judged according to the criterion mentioned below.” for “judged.”

[12] = tested on: barnyard grass (Echinochloa crus-galli Beauv.), Ec; assay: Test Example 4: herbicidal effect on upland weeds after emergence; details: dosage 5 kg/ha; sprayed after emergence; judged 14 days after treatment
Excerpt: (§4) Herbicidal Effect on Upland Weeds After Emergence Polyethylene-made vats having a size of 10 cm (length)×20 cm (width)×5 cm (height) were filled with soil, sown with seeds of the following noxious upland weeds and with seeds of soybean plant and wheat as upland crop plants, and then covered with soil. The plants were made to grow up until they reached the leaf-stages mentioned below, after which an agent comprising a prescribed concentration of a compound of the present invention (listed in Tables 1 to 14) as active ingredient was sprayed. Fourteen days after the treatment, the herbicidal effect was investigated, from which weed-killing rate was calculated in the same manner as in Test Example 1 and the results were judged. […] Sample weeds, their leaf stages, and leaf stages of soybean plant and wheat were as follows: [table]

[13] = tested on: bird's eye speedwell (Veronica persica Poir.), Vp; assay: as above; details: dosage 5 kg/ha; sprayed after emergence; judged 14 days after treatment
Excerpt: as §4

[14] = tested on: cleavers (Galium aparine L.), Ga; assay: as above; details: dosage 5 kg/ha; sprayed after emergence; judged 14 days after treatment
Excerpt: as §4

[15] = tested on: cocklebur (Xanthium strumarium L.), Xs; assay: as above; details: dosage 5 kg/ha; sprayed after emergence; judged 14 days after treatment
Excerpt: as §4

[16] = tested on: forxtail grass (Alopecurus aequalis var. amurensis Ohwi), Am; assay: as above; details: dosage 5 kg/ha; sprayed after emergence; judged 14 days after treatment
Excerpt: as §4

[17] = tested on: velvetleaf (Abutilon theophtasti L.), At; assay: as above; details: dosage 5 kg/ha; sprayed after emergence; judged 14 days after treatment
Excerpt: as §4

soybean plant = assay: Test Example 4: phytotoxicity to upland crop plants, treatment after emergence; details: dosage 5 kg/ha, sprayed after emergence, judged 14 days after treatment
Excerpt: as §4

wheat = assay: as above; details: dosage 5 kg/ha, sprayed after emergence, judged 14 days after treatment
Excerpt: as §4

| SMILES | Pre-emergence treatment Barnyard grass (herbicidal effect) [1] | Pre-emergence treatment Bulrush (herbicidal effect) [2] | Post-emergence treatment Barnyard grass (herbicidal effect) [3] | Post-emergence treatment Bulrush (herbicidal effect) [4] | Post-emergence treatment Monochoria (herbicidal effect) [5] | Herbicidal effect Ec [6] | Herbicidal effect Vp [7] | Herbicidal effect Ga [8] | Herbicidal effect Xs [9] | Herbicidal effect Am [10] | Herbicidal effect At [11] | Phytotoxicity So (soybean plant (So)) | Phytotoxicity Wh (wheat (Wh)) | Herbicidal effect Ec [12] | Herbicidal effect Vp [13] | Herbicidal effect Ga [14] | Herbicidal effect Xs [15] | Herbicidal effect Am [16] | Herbicidal effect At [17] | Phytotoxicity So (soybean plant) | other results |
| --- | --- | --- | --- | --- | --- | --- | --- | --- | --- | --- | --- | --- | --- | --- | --- | --- | --- | --- | --- | --- | --- |
| CCCNC(=O)c1cc2c(nc1C(=O)Nc1c(CC)ccc(Cl)c1CC)[S+]([O-])CC2 (stereo not drawn) [Compound No. 1028] | 5 (Weed-killing rate is 100%.) | 5 (Weed-killing rate is 100%.) | 5 (Weed-killing rate is 100%.) | 5 (Weed-killing rate is 100%.) | 5 (Weed-killing rate is 100%.) | 5 (Weed-killing rate is 100%.) | 5 (Weed-killing rate is 100%.) | 5 (Weed-killing rate is 100%.) | 5 (Weed-killing rate is 100%.) | 5 (Weed-killing rate is 100%.) | 5 (Weed-killing rate is 100%.) | 4 (Crop-killing rate is 90-99%.) | 5 (Crop-killing rate is 100%.) | 5 (Weed-killing rate is 100%.) | 5 (Weed-killing rate is 100%.) | 4 (Weed-killing rate is 90-99%.) | 5 (Weed-killing rate is 100%.) | 5 (Weed-killing rate is 100%.) | 5 (Weed-killing rate is 100%.) | 4 (Crop-killing rate is 90-99%.) | Phytotoxicity Wh (wheat): 5 (Crop-killing rate is 100%.) |
| CCCNC(=O)c1cc2c(nc1C(=O)Nc1c(CC)ccc(Cl)c1CC)S(=O)(=O)CC2 [Compound No. 1040, 6-(3-Chloro-2,6-diethylphenyl)-aminocarbonyl-2,3-dihydro-1,1-dioxo-thieno[2,3-b]pyridine-5-carboxylic Acid n-Propylamide] | 5 (Weed-killing rate is 100%.) | 5 (Weed-killing rate is 100%.) | 5 (Weed-killing rate is 100%.) | 5 (Weed-killing rate is 100%.) | 5 (Weed-killing rate is 100%.) | 5 (Weed-killing rate is 100%.) | 5 (Weed-killing rate is 100%.) | 5 (Weed-killing rate is 100%.) | 5 (Weed-killing rate is 100%.) | 5 (Weed-killing rate is 100%.) | 5 (Weed-killing rate is 100%.) | 4 (Crop-killing rate is 90-99%.) | 5 (Crop-killing rate is 100%.) | 5 (Weed-killing rate is 100%.) | 5 (Weed-killing rate is 100%.) | 5 (Weed-killing rate is 100%.) | 5 (Weed-killing rate is 100%.) | 5 (Weed-killing rate is 100%.) | 5 (Weed-killing rate is 100%.) | 4 (Crop-killing rate is 90-99%.) | Phytotoxicity Wh (wheat): 5 (Crop-killing rate is 100%.) |
